Measured values: PMC3996484, “Apoptosis Therapy in Cancer: The First Single-molecule Co-activating p53 and the Translocator Protein in Glioblastoma” (Scientific Reports, 2014)
Like-named read-outs stand apart in the source and are kept apart here.

Key:
[1] = target: T1, native human MDM2/p53 complex (Homo sapiens, UniProt Q00987); test: ELISA-based dissociation of native MDM2/p53 complex in U87MG cell lysates; format: biochemical
T1 construct: U87MG cell lysates, containing the native MDM2/p53 complex; endogenous in cells; host or cells: U87MG human glioblastoma cells
T1 sequence (Q00987 whole entry, one chain of several): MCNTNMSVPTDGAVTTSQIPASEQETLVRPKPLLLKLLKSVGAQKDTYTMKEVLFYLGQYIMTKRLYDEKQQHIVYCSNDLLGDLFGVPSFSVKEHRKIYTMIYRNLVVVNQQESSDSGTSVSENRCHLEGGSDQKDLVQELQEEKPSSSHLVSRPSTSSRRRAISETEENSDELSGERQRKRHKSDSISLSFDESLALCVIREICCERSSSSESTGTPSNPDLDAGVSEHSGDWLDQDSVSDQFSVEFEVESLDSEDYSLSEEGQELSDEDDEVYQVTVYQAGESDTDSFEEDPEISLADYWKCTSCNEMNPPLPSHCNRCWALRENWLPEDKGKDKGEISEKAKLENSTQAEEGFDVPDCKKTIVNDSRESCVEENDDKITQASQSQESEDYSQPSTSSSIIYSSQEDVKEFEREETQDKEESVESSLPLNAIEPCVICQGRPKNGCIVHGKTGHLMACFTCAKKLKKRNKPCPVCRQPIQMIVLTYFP
Method: After extensive washes, levels of the MDM2/p53 complex were quantified using an antibody specific for p53, and subsequently an HRP-conjugated antibody and a TMB substrate kit. (C), (D) U87MG cell lysates, containing the native MDM2/p53 complex, were pre-incubated with DMSO (control) or different concentrations of the indicated compounds. Then, lysates were captured on wells pre-coated with MDM2 antibody. After extensive washes, levels of the MDM2/p53 complex were quantified using an antibody specific for p53, and subsequently an HRP-conjugated antibody and a TMB substrate kit. Blank wells were obtained in the absence of p53 antibody. Data are expressed as absorbance at 450 nm minus blank values (A), (B), or as % of control set to 100% (C), (D), and represent the mean ± SEM of at least three independent experiments.
To test the ability of new compound to dissociate the native MDM2/p53 complex, a quantitative sandwich immune-enzymatic assay, on crude cell lysates obtained from U87 MG cells was developed. […] The TMB substrate kit (Thermo Fisher Scientific) allowed a colorimetric quantification of the MDM2/p53 complex. […] Absorbance's values at 450 nm were measured, background subtracted and sigmoid dose-response curves were generated using Graph Pad Prism 4 software, from which IC50 values of MDM2/p53 complex were derived.

[2] = system: U87MG cells; test: Cell viability, Trypan blue exclusion assay; format: cell-based, human
Method: Each experiment was performed in duplicate. […] Each experiment was performed in duplicate.
The effects of compound treatment on U87MG cell viability were evaluated by Trypan blue exclusion assays. Briefly harvested cells were mixed with an equal volume of 0.4% trypan blue dye. For quantization of cell viability, blue and bright cells were counted, and viability was calculated as the percentage of live (bright) cells versus control set to 100%. U87MG cells were treated with different concentrations (10 nM–10 μM) of each compound and after 24 h of incubation viable cells were counted.

[3] = system: U87MG cells; test: Annexin V and 7-AAD staining (apoptosis); format: cell-based, human
Method: Dual staining with Annexin V coniugated to fluorescein-isothiocyanate (FITC) and 7-amino-actinomysin (7-AAD) was performed using the commercially available kit (Muse Annexin V and Dead Cell Kit; Merck KGaA, Darmstadt, Germany). […] Both floating and adherent cells were collected, centrifuged at 300 × g for 5 minutes and suspended in cell culture medium. Then, a 100 μl aliquot of cell suspension (about 5 × 10^4 cell/ml) was added to 100 μl of fluorescent reagent and incubated for 10 minutes at room temperature. After incubation, the percentages of living, apoptotic and dead cells were acquired and analyzed by Muse™ Cell Analyzer in accordance to the manufacture's guidelines. In cells undergoing apoptosis, annexin V binds to phosphatidylserine, which translocates to the outer leaflet of the cytoplasmatic membrane. Double staining is used to distinguish between viable, early apoptotic, and necrotic or late apoptotic cells. Annexin V:FITC […] cells were identified as early apoptotic. Cells which were Annexin V-FITC positive and 7-AAD positive were identified as cells in late apoptosis or necrotic.

[4] = system: U87MG cells; test: Δψm dissipation in intact cells (JC-1, mitochondria isolated after cell treatment); conditions: for Δψm dissipation: 10 μM, 24 h of cell treatment; for Δψm dissipation vs control: intact cells, 5 μM, 24 h
[5] = system: U87MG cells; test: Senescence marker SA-β-Gal; format: cell-based, human; conditions: 5 μM, 24 h
Description: The senescence marker SA-β-Gal was detected as previously described[16] and cells were then washed in PBS (1×) and photographed at 100× magnification. Images of random light microscopic fields were captured (5 fields per well), and both blue and total cells were counted using ImageJ (ImageJ Software, version 1.41; USA).

[6] = Precipitation in NMR sample; format: physicochemical; conditions: added from DMSO stock, 20 mM TrisHCl, 150 mM KCl, pH 7.4
Method: NMR spectra were acquired at 25°C on a Varian Unity INOVA 700 MHz spectrometer equipped with a cryoprobe. NMR samples contained 0.1 mM of proteins in 20 mM TrisHCl, 150 mM KCl, pH 7.4, 5 mM β-mercaptoethanol, 0.02% NaN3. Water suppression was carried out by gradient echo[39]. NMR data were processed using the Bruker program BioSpin 3.0. For NMR ligand binding experiments, 300 μL of the protein sample containing 10% D2O, at a concentration of about 0.1 mM, and a 10 mM stock solution of compounds 7 and 1 in DMSO-d6 were used. The formal final molar ratio protein:inhibitor was 1:2.

[7] = system: p53 target genes (MDM2, p21, PUMA) in U87MG cells; test: Relative mRNA quantification of p53 target genes (real-time RT-PCR); format: cell-based, human; conditions: for mRNA levels of p53 target genes (MDM2 and p21): 5 μM
Method: The assessment of p53 target gene mRNA levels was performed by real-time reverse transcription polymerase chain reaction (real-time RT-PCR)[16]. In brief, total RNA was extracted from control cells as well as from cells treated with compounds (5 μM) for different hours, using Rneasy® Mini Kit (Qiagen, Hilden, Germany) according to manufacturer's instructions. Purity of the RNA samples was determined by measuring the absorbance at 260:280 nm. cDNA synthesis was performed with 500 ng of RNA using i-Script cDNA synthesis kit (BioRad, Hercules, USA) following manufacturer's instructions. […] RT-PCR reactions consisted of 25 μL Fluocycle® II SYBR® (Euroclone, Milano, Italy), 1.5 μL of both 10 μM forward and reverse primers, 3 μL cDNA, and 19 μL of H2O. All reactions were performed for 40 cycles using 55°C as annealing temperature. The p53 target gene mRNA levels for each sample were normalized against β-actin mRNA levels, and relative expression was calculated by using Ct value. PCR specificity was verified by both the melting curve analysis and gel electrophoresis.

[8] = system: p53 protein levels in U87MG cells; test: p53 protein levels by Western blot; format: cell-based, human; conditions: 8 h incubation
Method: Figure 6 New synthesized compounds induce p53 protein accumulation by dissociation of MDM2/p53 complex and stimulate transcription of p53 target genes in U87MG cells. […] Lysates were subjected to Western blot analysis using antibody to p53 (FL-393; Santa Cruz Biotechnology). […] The MDM2/p53 complex and the relative input of the proteins were detected by immunoblot. One representative Western blot is presented (left panel). […] (D) Relative mRNA quantification of p53 target genes: The relative mRNA quantification of p53 target genes (p21 and MDM2) was performed by real-time RT-PCR as describe in Methods. […] Each experiment was performed in duplicate.
The western blot analysis for the evaluation of p53 protein levels was performed as previously described. […] 30 μg of each sample was then resolved by SDS-PAGE (8.5%), transferred to PVDF membranes and probed overnight at 4°C with primary antibody anti-p53 (FL-393; Santa Cruz Biotechnology; 1:500). The primary antibody was detected using anti-rabbit IgG light chains conjugated to peroxidase (diluted 1:10.000). The peroxidase was detected using a chemioluminescent substrate (ECL, Perkin Elmer). Densitometric analysis of immunoreactive bands was performed using Image J Software.

[9] = target: T2, TSPO (Rattus norvegicus, UniProt P16257); test: Competitive [3H]PK11195 radioligand binding assay; conditions: membrane homogenates from kidney, 0.6 nM [3H]PK11195; read-out: Ki, displacement of specific [3H]PK11195 binding
T2 construct: membranes homogenates obtained from kidney (20 μg of proteins) were incubated with 0.6 nM; from tissue; host or cells: kidney (crude mitochondrial membranes)
Method: (§1) Figure 3 New synthesized compounds bind to TSPO and induce Δψm collapse. (A) [^3H]PK11195 radioligand binding: membranes homogenates obtained from kidney (20 μg of proteins) were incubated with 0.6 nM [^3H]PK11195 and different compounds concentration. Reaching equilibrium, samples were filtered and bound radioactivity was counted. […] (B) Evaluation of Δψm in isolated mitochondria: Mitochondria (5 μg of proteins) were treated with compound 1 (5 μM), or compound 7 (5 μM), or DMSO (control) for 15 min. […] Each experiment was performed in duplicate.
Binding studies were performed as previously described. Briefly, crude mitochondrial membranes, in 50 mM Tris-HCl pH 7.4 buffer, were incubated with 0.6 nM [^3H]PK 11195 in the presence of new synthesized compounds (0.1 nM–10 μM) in a final volume of 0.5 ml for 90 min at 4°C. Incubations were terminated by rapid filtration through GF/C glass fiber filters and washed three times with 4 ml of cold buffer. The radioactivity was measured by liquid scintillation counter. Non-specific binding was estimated in the presence of unlabeled 1 μM PK 11195. IC50 value was determined using Graph-Pad Prism computer program (Graph Pad Software, version 5.0; San Diego, CA).

[10] = system: mitochondria isolated from the human GBM cell line U87MG; test: Δψm dissipation in isolated mitochondria (JC-1); format: biochemical; conditions: isolated treated mitochondria, 5 μM, 15 min
Method: as §1
Several evidences have shown that TSPO is a constituent of the MPTP, taking therefore part in dissipation of Δψm that occurs after MPTP opening, as well as in the release of proapoptotic inter-membrane proteins and in the induction of apoptosis. To assess whether compounds 1 and 7 could modulate MPT-pore opening through their selective binding to TSPO, Δψm was measured in mitochondria isolated from the human GBM cell line U87MG.

[11] = target: T3, recombinant human MDM2/p53 complex (Homo sapiens, UniProt Q00987); test: NMR dissociation (AIDA) of recombinant MDM2/p53 complex; format: binding; conditions: 0.2 mM formal final concentration, complex 0.1 mM
T3 construct: N-terminal region of MDM2 (residues 1–118); His-tag; made in house; host or cells: Escherichia coli BL21(DE3) RIL
T3 sequence (Q00987 1-118, one chain of several): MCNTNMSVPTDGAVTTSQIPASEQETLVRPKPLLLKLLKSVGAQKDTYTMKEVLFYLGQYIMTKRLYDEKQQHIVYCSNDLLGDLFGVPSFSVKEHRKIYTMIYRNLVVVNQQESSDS
Description: The method, named AIDA (for Antagonist Induced Dissociation Assay[26][27]), can work with complex made by a large protein fragment (larger than 30 kDa) and a small reporter protein (less than 20 kDa). AIDA makes use of two-dimensional^15N-HSQC spectra, however, in the presence of flexible protein residues, 1D proton NMR spectra may be sufficient for monitoring the states of the complex upon addition of ligands. Since the N-terminal domain of p53 is highly flexible, MDM2/p53 complex is suitable for 1D proton NMR application[26][28][29]. Particularly, the signals from ^NH^ε side chains of W23 and W53 are sharp in the free p53 1D proton spectrum. After the complex formation, W23 signal disappears, since W23 comprises the primary binding site for MDM2. In fact, residues 17–26 of p53 participate in well-defined structures of large MDM2/p53 complexes. In contrast, W53 is still not structured when p53 binds MDM2[26].
NMR spectra were acquired at 25°C on a Varian Unity INOVA 700 MHz spectrometer equipped with a cryoprobe. […] Water suppression was carried out by gradient echo[39]. NMR data were processed using the Bruker program BioSpin 3.0.

Structure (SMILES) | IC50 [1] [µM] | Δψm dissipation [4] | mRNA levels of p53 target genes (MDM2 and p21) [7] | Δψm dissipation vs control [4] [%] | concentration at which p53 accumulation became significant [8] [µM] | Ki [9] [µM] | Δψm dissipation vs control [10] [%] | also measured
O=C1[C@@H]2CS[C@@]3(C(=O)Nc4ccccc43)N2C(=O)N1Cc1ccc(Cl)cc1 [ISA27, reference compound] | 0.122 ± 0.0145 | – | – | – | – | – | – | –
COc1ccc(C2=N[C@@H](c3ccc(Cl)cc3)[C@@H](c3ccc(Cl)cc3)N2C(=O)N2CCNC(=O)C2)c(OC(C)C)c1 [Nutlin-3, reference compound] | – | only a marginal effect | – | – | – | – | – | effect on U87MG cell viability ([2]; 24 h): dose-dependent reduction; induction of specific apoptotic parameters (Annexin V, PUMA mRNA) ([3]; 10 μM, 24 h): did not show any induction
CCC(C)N(C)C(=O)c1cc2ccccc2c(-c2ccccc2Cl)n1 (stereo not shown) [PK11195] | – | significant Δψm dissipation | – | – | – | – | – | inhibition of cell viability vs control ([2]; 100 μM, 24 h, maximal effect): 52.0 ± 2.3%; concentration from which inhibition of cell viability is significant ([2]; 24 h): 10 µM
CCOC(=O)[C@@H](Cc1ccccc1)NC(=O)[C@H](CC(C)C)NC(=O)C(=O)c1c(-c2ccccc2)[nH]c2ccccc12 [compound 1, (2-phenylindol-3-yl)glyoxyl-L-leucine-L-phenylalanine ethylester] | – | – | increase significantly | 47.0 ± 3.4 | 5 | 0.438 ± 0.035 | 20.0 ± 1.8 | activity of the senescence marker β-galactosidase [5]: no activity; IC50 ([2]; Homo sapiens, U-87 MG, 24 h, read-out: IC50, U87MG cell survival): 2.5 ± 0.4 µM; actual concentration in MDM2/p53 NMR sample (sample precipitation) [6]: lower than 0.2 mM; increase of PUMA mRNA level ([7]; 16–24 h): approximately 4 fold; phosphatidylserine externalization (early and late apoptosis) ([3]; 5 μM): significant phosphatidylserine externalization
CC(C)C[C@H](NC(=O)C(=O)c1c(-c2ccccc2)[nH]c2ccccc12)C(=O)N[C@H](Cc1ccccc1)C(=O)O [compound 7, (2-phenylindol-3-yl)glyoxyl-L-leucine-L-phenylalanine] | 0.202 ± 0.0212 | – | increase significantly | 60.1 ± 3.2 | 5 | 0.759 ± 0.056 | 43 ± 3.1 | IC50 ([2]; Homo sapiens, U-87 MG, 24 h; read-out: IC50, U87MG cell survival): 2.9 ± 0.5 µM; p53 release from MDM2/p53 complex (W23 peak appears) [11]: complete p53 release
